Measurements taken from patent publication US7897582B2, “Oligonucleotide compositions and methods for the modulation of the expression of B7 protein” (Isis Pharmaceuticals, Inc., priority 2003, dated 2011).
Strand notation (5' to 3'): a small letter for the sugar, then the base; units joined by * are phosphorothioate-linked, units joined directly phosphodiester-linked; [ ] holds rarer units or linkages, { } end groups; capitals alone tell only the bases. e = 2'-O-(2-methoxyethyl) (MOE); [5mC] = 5-methylcytosine; d = 2'-deoxy (DNA)

Columns and labels:
[1] = test system: hB7-2 mRNA; experiment: Ribonuclease protection assay of hB7-2 mRNA in transfected COS-7 cells; assay type: cell-based, human
Protocol: For ribonuclease protection assays, cells were harvested 18 hours after completion of oligonucleotide treatment using a Totally RNA™ kit (Ambion, Austin, Tex.). The probes for the assay were generated from plasmids pcB7-2 (linearized by digestion with Bgl II) and pTRI-b-actin (Ambion Inc., Austin, Tex.). In vitro transcription of the linearized plasmid from the SP6 promoter was performed in the presence of α-^32P-UTP (800 Ci/mmole) yielding an antisense RNA complementary to the 3′ end of B7-2 (position 1044-1391). The probe was gel-purified after treatment with DNase I to remove DNA template. Ribonuclease protection assays were carried out using an RPA II™ kit (Ambion) according to the manufacturer's directions. Total RNA (5 μg) was hybridized overnight, at 42° C., with 10^5 cpm of the B7-2 probe or a control beta-actin probe. The hybridization reaction was then treated, at 37° C. for 30 minutes, with 0.4 units of RNase A and 2 units of RNase T1. Protected RNA was precipitated, resuspended in 10 μL of gel loading buffer and electrophoresed on a 6% acrylamide gel with 50% w/v urea at 20 W. The gel was then exposed and the lanes quantitated using a PhosphorImager (Molecular Dynamics, Sunnyvale, Calif.) essentially according to the manufacturer's instructions.
The oligonucleotides were screened as described in Example 4 except that the concentration of oligonucleotide was varied as shown in Table 13. Mismatch control oligonucleotides were included.

[2] = test system: Human B7-1 mRNA; experiment: Human B7-1 mRNA expression in COS-7 cells, screened as in Example 4; assay type: cell-based; settings: human B7-1 mRNA; Table 7
[3] = COS-7 cells, B7-2 mRNA, oligonucleotide dose 10 nM, basal = 100%
[4] = COS-7 cells, B7-2 mRNA, oligonucleotide dose 30 nM, basal = 100%
[5] = COS-7 cells, B7-2 mRNA, oligonucleotide dose 100 nM, basal = 100%
[6] = COS-7 cells, B7-2 mRNA, oligonucleotide dose 300 nM, basal = 100%
[7] = COS-7 cells, B7-2 mRNA, oligonucleotide dose 10 nM
[8] = COS-7 cells, B7-2 mRNA, oligonucleotide dose 30 nM

Question: For “22305 (e[5mC]*eA*eT*e[5mC]*eA*dG*dA*dT*d[5mC]*dT*dT*dT*d[5mC]*dA*dG*eG*eT*eA*eT*eA; antisense) [compound 22305]”, which “% mRNA EXPRESSION” value ([1]; human B7-2 mRNA, Table 12) is on record?
Answer: The value was 57%.

Question: And the “% mRNA INHIBITION” value ([1]; human B7-2 mRNA, Table 12)?
Answer: Its value is 43%.

Question: Which “% mRNA EXPRESSION” value ([1]; human B7-2 mRNA, Table 12) does the source give for “22306 (eG*eG*e[5mC]*eT*eT*dT*dA*d[5mC]*dT*d[5mC]*dT*dT*dT*dA*dA*eT*eT*eA*eA*eA; antisense) [compound 22306]” here?
Answer: Its value is 44%.

Question: For “22307 (eG*eA*eA*eA*eT*d[5mC]*dA*dA*dA*dA*dA*dG*dG*dT*dT*eG*e[5mC]*e[5mC]*e[5mC]*eA; antisense) [compound 22307]”, which “% mRNA EXPRESSION” value ([1]; human B7-2 mRNA, Table 12) is on record?
Answer: The value was 45%.

Question: With “22308 (eG*eG*eA*eG*eT*d[5mC]*d[5mC]*dT*dG*dG*dA*dG*d[5mC]*d[5mC]*d[5mC]*e[5mC]*e[5mC]*eT*eT*eA; antisense) [compound 22308]” as the substance, how does the “% mRNA EXPRESSION” value ([1]; human B7-2 mRNA, Table 12) read?
Answer: Its value is 40%.

Question: With “22309 (eT*eT*eG*eG*e[5mC]*dA*dT*dA*d[5mC]*dG*dG*dA*dG*d[5mC]*dA*eG*eA*eG*e[5mC]*eT; antisense) [compound 22309]” as the substance, how does the “% mRNA EXPRESSION” value ([1]; human B7-2 mRNA, Table 12) read?
Answer: The value was 42%.

Question: How did the “% mRNA EXPRESSION” value ([1]; human B7-2 mRNA, Table 12) turn out when “22310 (eT*eG*eT*eG*e[5mC]*dT*d[5mC]*dT*dG*dA*dA*dG*dT*dG*dA*eA*eA*eA*eG*eA; antisense) [compound 22310]” was run?
Answer: The value was 41%.

Question: How did the “% mRNA EXPRESSION” value ([1]; human B7-2 mRNA, Table 12) turn out when “22311 (eG*eG*e[5mC]*eT*eT*dG*dG*d[5mC]*d[5mC]*d[5mC]*dA*dT*dA*dA*dG*eT*eG*eT*eG*e[5mC]; antisense) [compound 22311]” was run?
Answer: Its value is 49%.

Question: Which results are given for “22312 (e[5mC]*e[5mC]*eT*eA*eA*dA*dT*dT*dT*dT*dA*dT*dT*dT*d[5mC]*e[5mC]*eA*eG*eG*eT; antisense) [compound 22312]”?
Answer: % mRNA EXPRESSION ([1]; human B7-2 mRNA, Table 12): 83%; % mRNA INHIBITION ([1]; human B7-2 mRNA, Table 12): 17%

Question: What does the source list for “22313 (eA*eG*eA*e[5mC]*eT*d[5mC]*d[5mC]*dA*d[5mC]*dT*dT*d[5mC]*dT*dG*dA*eG*eA*eT*eG*eT; antisense) [compound 22313]”?
Answer: % mRNA EXPRESSION [2]: 75%; % mRNA INHIBITION [2]: 25%

Question: For “22314 (eT*eG*eA*eA*eG*dA*dA*dA*dA*dA*dT*dT*d[5mC]*d[5mC]*dA*e[5mC]*eT*eT*eT*eT; antisense) [compound 22314]”, which “% mRNA EXPRESSION” value [2] is on record?
Answer: Its value is 69%.

Question: What about the “% mRNA INHIBITION” value [2] of the same substance?
Answer: Its value is 31%.

Question: With “22315 (eT*eT*eT*eA*eG*dT*dT*dT*d[5mC]*dA*d[5mC]*dA*dG*d[5mC]*dT*eT*eG*e[5mC]*eT*eG) [compound 22315]” as the substance, how does the “% mRNA EXPRESSION” value [2] read?
Answer: Its value is 49%.

Question: Which “% mRNA EXPRESSION” value [2] does the source give for “22318 (eG*eT*eG*eA*eA*dA*dG*d[5mC]*d[5mC]*dA*dA*d[5mC]*dA*dA*dT*eT*eT*eG*eG*eA; antisense) [compound 22318]” here?
Answer: The value was 63%.

Question: And the “% mRNA INHIBITION” value [2]?
Answer: The value was 37%.

Question: Which “% mRNA EXPRESSION” value [2] does the source give for “22319 (e[5mC]*eA*eT*eG*eG*d[5mC]*dT*dT*d[5mC]*dA*dG*dA*dT*dG*d[5mC]*eT*eT*eA*eG*eG; antisense) [compound 22319]” here?
Answer: Its value is 68%.

Question: What about the “% mRNA INHIBITION” value [2] of the same substance?
Answer: The value was 32%.

Question: Which results are given for “22321 (eG*eA*e[5mC]*e[5mC]*eA*dG*d[5mC]*d[5mC]*dA*dG*d[5mC]*dA*d[5mC]*d[5mC]*dA*eA*eG*eA*eG*e[5mC]; antisense) [compound 22321]”?
Answer: % mRNA EXPRESSION [2]: 57%; % mRNA INHIBITION [2]: 43%

Question: What does the source list for “22326 (antisense eG*eT*eA*eT*eG*dT*dG*d[5mC]*d[5mC]*d[5mC]*dT*d[5mC]*dG*dT*d[5mC]*eA*eG*eA*eT*eG) [compound 22326]”?
Answer: % mRNA EXPRESSION [2]: 62%; % mRNA INHIBITION [2]: 38%

Question: “22328 (antisense eG*eG*eA*eA*eG*dT*d[5mC]*dA*dG*d[5mC]*dT*dT*dT*dG*dA*e[5mC]*eT*eG*eA*eT) [compound 22328]” was tested. Which “% mRNA EXPRESSION” value [2] did it give?
Answer: The value was 64%.

Question: What about the “% mRNA INHIBITION” value [2] of the same substance?
Answer: The value was 36%.

Question: “24736 (antisense eG*e[5mC]*eT*e[5mC]*e[5mC]*dA*dA*dG*dT*dG*dT*d[5mC]*d[5mC]*d[5mC]*dA*eA*eT*eG*eA*eA) [compound 24736]” was tested. Which “% mRNA EXPRESSION” value [1, 3] did it give?
Answer: Its value is 102%.

Question: What about the “% mRNA EXPRESSION” value [1, 4] of the same substance?
Answer: Its value is 101%.

Question: What about the “% mRNA EXPRESSION” value [1, 5] of the same substance?
Answer: The value was 100%.

Question: What about the “% mRNA EXPRESSION” value [1, 6] of the same substance?
Answer: Its value is 107%.

Question: “24737 (antisense eA*eG*eT*eA*eT*dG*dT*dT*dT*d[5mC]*dT*d[5mC]*dA*d[5mC]*dT*e[5mC]*e[5mC]*eG*eA*eT) [compound 24737]” was tested. Which “% mRNA INHIBITION” value [1, 7] did it give?
Answer: The value was 15%.

Question: And the “% mRNA EXPRESSION” value [1, 3]?
Answer: Its value is 85%.

Question: And the “% mRNA INHIBITION” value [1, 8]?
Answer: The value was 5%.

Question: What about the “% mRNA EXPRESSION” value [1, 4] of the same substance?
Answer: Its value is 95%.

Question: And the “% mRNA INHIBITION” value ([1]; COS-7 cells, B7-2 mRNA, oligonucleotide dose 100 nM)?
Answer: Its value is 13%.

Question: What about the “% mRNA EXPRESSION” value [1, 5] of the same substance?
Answer: Its value is 87%.

Question: And the “% mRNA INHIBITION” value ([1]; COS-7 cells, B7-2 mRNA, oligonucleotide dose 300 nM)?
Answer: The value was 1%.

Question: What about the “% mRNA EXPRESSION” value [1, 6] of the same substance?
Answer: The value was 99%.

Question: Which “% mRNA INHIBITION” value [1, 7] does the source give for “24738 (antisense eT*eG*e[5mC]*e[5mC]*eA*dG*d[5mC]*dA*d[5mC]*d[5mC]*d[5mC]*dG*dG*dT*dA*e[5mC]*eG*eT*e[5mC]*e[5mC]) [compound 24738]” here?
Answer: The value was 19%.

Question: What about the “% mRNA EXPRESSION” value [1, 3] of the same substance?
Answer: The value was 81%.

Question: What about the “% mRNA INHIBITION” value [1, 8] of the same substance?
Answer: The value was 8%.

Question: And the “% mRNA EXPRESSION” value [1, 4]?
Answer: The value was 92%.

Question: And the “% mRNA EXPRESSION” value [1, 5]?
Answer: Its value is 101%.

Question: And the “% mRNA EXPRESSION” value [1, 6]?
Answer: Its value is 124%.
